Test results published in the supplement of paper PMC10307832.

Experiments:
Experiment in all cases: relative viability (nuclei count vs DMSO), 5 days (fraction); higher = more cells survive
[1] = system: A-427
Method in brief: (§1)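 Nuclei were stained with Hoechst during a one-step fixation (final 0.05% Triton X-100, 1% formaldehyde, 1 ug/ml Hoechst) carried out 5 days after dosing, then counted on 4× images. The cells, lung cancer lines in 1536-well plates, had been dosed by pin tool the day after seeding with one drug alone or a fixed anchor-drug dose plus five library-drug doses (not always all listed) in √10 steps. Relative viability is the nuclei count in treated wells divided by that in vehicle wells, and each value is the median of duplicate plates.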

[2] = system: NCI-H522
Method in brief: as §1

[3] = system: NCI-H2228
Method in brief: as §1

[4] = system: NCI-H322M
Method in brief: as §1

[5] = system: SK-MES-1
Method in brief: as §1

[6] = system: NCI-H2170
Method in brief: as §1

[7] = system: SW 1573
Method in brief: as §1

[8] = system: LK-2
Method in brief: as §1

[9] = system: SW 900
Method in brief: as §1

[10] = system: HOP-62
Method in brief: as §1

[11] = system: NCI-H1993
Method in brief: as §1

[12] = system: PC-3 [JPC-3]
Method in brief: as §1

[13] = system: NCI-H2009
Method in brief: as §1

[14] = system: NCI-H3122
Method in brief: as §1

[15] = system: LXF-289
Method in brief: as §1

[16] = system: EMC-BAC-2
Method in brief: as §1

[17] = system: HARA
Method in brief: as §1

[18] = system: NCI-H1792
Method in brief: as §1

[19] = system: NCI-H1944
Method in brief: as §1

[20] = system: NCI-H596
Method in brief: as §1

O=c1cc(-c2cccc3c2Sc2ccccc2S3)oc(N2CCOCC2)c1 + Nc1nc2[nH]cc(CCc3ccc(C(=O)N[C@@H](CCC(=O)O)C(=O)O)cc3)c2c(=O)[nH]1 [Pemetrexed] (partner 0.2 µM)
relative viability ([1]; first compound 0.08 µM): 0.808
relative viability ([1]; first compound 0.253 µM): 1
relative viability ([1]; first compound 0.8 µM): 0.991
relative viability ([1]; first compound 2.53 µM): 0.92
relative viability ([1]; first compound 8 µM): 0.993
relative viability ([2]; first compound 0.08 µM): 0.844
relative viability ([2]; first compound 0.253 µM): 1.13
relative viability ([2]; first compound 0.8 µM): 0.851
relative viability ([2]; first compound 2.53 µM): 1.03
relative viability ([2]; first compound 8 µM): 1.12
relative viability ([3]; first compound 0.08 µM): 0.351
relative viability ([3]; first compound 0.253 µM): 0.359
relative viability ([3]; first compound 0.8 µM): 0.336
relative viability ([3]; first compound 2.53 µM): 0.355
relative viability ([3]; first compound 8 µM): 0.473
relative viability ([4]; first compound 0.08 µM): 0.57
relative viability ([4]; first compound 0.253 µM): 0.61
relative viability ([4]; first compound 0.8 µM): 0.598
relative viability ([4]; first compound 2.53 µM): 0.634
relative viability ([4]; first compound 8 µM): 0.602
relative viability ([5]; first compound 0.08 µM): 1.07
relative viability ([5]; first compound 0.253 µM): 1.07
relative viability ([5]; first compound 0.8 µM): 0.838
relative viability ([5]; first compound 2.53 µM): 0.792
relative viability ([5]; first compound 8 µM): 0.833
relative viability ([6]; first compound 0.08 µM): 0.268
relative viability ([6]; first compound 0.253 µM): 0.271
relative viability ([6]; first compound 0.8 µM): 0.292
relative viability ([6]; first compound 2.53 µM): 0.256
relative viability ([6]; first compound 8 µM): 0.262
relative viability ([7]; first compound 0.08 µM): 0.754
relative viability ([7]; first compound 0.253 µM): 1.11
relative viability ([7]; first compound 0.8 µM): 0.865
relative viability ([7]; first compound 2.53 µM): 0.838
relative viability ([7]; first compound 8 µM): 0.924
relative viability ([8]; first compound 0.08 µM): 0.312
relative viability ([8]; first compound 0.253 µM): 0.297
relative viability ([8]; first compound 0.8 µM): 0.224
relative viability ([8]; first compound 2.53 µM): 0.256
relative viability ([8]; first compound 8 µM): 0.284
relative viability ([9]; first compound 0.253 µM): 0.492
relative viability ([9]; first compound 0.8 µM): 0.495
relative viability ([9]; first compound 2.53 µM): 0.439
relative viability ([9]; first compound 8 µM): 0.438
relative viability ([10]; first compound 0.08 µM): 0.322
relative viability ([10]; first compound 0.253 µM): 0.305
relative viability ([10]; first compound 0.8 µM): 0.406
relative viability ([10]; first compound 2.53 µM): 0.396
relative viability ([10]; first compound 8 µM): 0.352
relative viability ([11]; first compound 0.08 µM): 0.588
relative viability ([11]; first compound 0.253 µM): 0.702
relative viability ([11]; first compound 0.8 µM): 0.567
relative viability ([11]; first compound 2.53 µM): 0.497
relative viability ([11]; first compound 8 µM): 0.613
relative viability ([12]; first compound 0.08 µM): 0.721
relative viability ([12]; first compound 0.253 µM): 1.11
relative viability ([12]; first compound 0.8 µM): 1.3
relative viability ([12]; first compound 2.53 µM): 0.996
relative viability ([12]; first compound 8 µM): 1.08
relative viability ([13]; first compound 0.08 µM): 1.08
relative viability ([13]; first compound 0.253 µM): 0.96
relative viability ([13]; first compound 0.8 µM): 0.983
relative viability ([13]; first compound 2.53 µM): 0.966
relative viability ([13]; first compound 8 µM): 0.957
relative viability ([14]; first compound 0.08 µM): 0.205
relative viability ([14]; first compound 0.253 µM): 0.197
relative viability ([14]; first compound 0.8 µM): 0.186
relative viability ([14]; first compound 2.53 µM): 0.191
relative viability ([14]; first compound 8 µM): 0.18
relative viability ([15]; first compound 0.08 µM): 0.95
relative viability ([15]; first compound 0.253 µM): 0.96
relative viability ([15]; first compound 0.8 µM): 0.975
relative viability ([15]; first compound 2.53 µM): 0.93
relative viability ([15]; first compound 8 µM): 1.03
relative viability ([16]; first compound 0.08 µM): 0.396
relative viability ([16]; first compound 0.253 µM): 0.473
relative viability ([16]; first compound 0.8 µM): 0.442
relative viability ([16]; first compound 2.53 µM): 0.429
relative viability ([16]; first compound 8 µM): 0.463
relative viability ([17]; first compound 0.08 µM): 0.24
relative viability ([17]; first compound 0.253 µM): 0.227
relative viability ([17]; first compound 0.8 µM): 0.228
relative viability ([17]; first compound 2.53 µM): 0.251
relative viability ([17]; first compound 8 µM): 0.286
relative viability ([18]; first compound 0.08 µM): 0.75
relative viability ([18]; first compound 0.253 µM): 1.54
relative viability ([18]; first compound 0.8 µM): 0.775
relative viability ([18]; first compound 2.53 µM): 0.776
relative viability ([18]; first compound 8 µM): 0.729
relative viability ([19]; first compound 0.08 µM): 0.642
relative viability ([19]; first compound 0.253 µM): 0.518
relative viability ([19]; first compound 0.8 µM): 0.636
relative viability ([19]; first compound 2.53 µM): 0.516
relative viability ([19]; first compound 8 µM): 0.698
relative viability ([20]; first compound 0.08 µM): 0.422
relative viability ([20]; first compound 0.253 µM): 0.52
relative viability ([20]; first compound 0.8 µM): 0.536
relative viability ([20]; first compound 2.53 µM): 0.543
relative viability ([20]; first compound 8 µM): 0.478

COc1nc(C)cnc1NS(=O)(=O)c1cccnc1-c1ccc(-c2nnco2)cc1 [Zibotentan] + Nc1nc2[nH]cc(CCc3ccc(C(=O)N[C@@H](CCC(=O)O)C(=O)O)cc3)c2c(=O)[nH]1 [Pemetrexed] (partner 0.2 µM)
relative viability ([1]; first compound 0.08 µM): 1.18
relative viability ([1]; first compound 0.253 µM): 1.01
relative viability ([1]; first compound 0.8 µM): 0.95
relative viability ([1]; first compound 2.53 µM): 1.07
relative viability ([2]; first compound 0.08 µM): 0.909
relative viability ([2]; first compound 0.253 µM): 1.03
relative viability ([2]; first compound 0.8 µM): 0.881
relative viability ([2]; first compound 2.53 µM): 0.758
relative viability ([3]; first compound 0.08 µM): 0.323
relative viability ([3]; first compound 0.253 µM): 0.33
relative viability ([3]; first compound 0.8 µM): 0.291
relative viability ([3]; first compound 2.53 µM): 0.346
relative viability ([4]; first compound 0.08 µM): 0.661
relative viability ([4]; first compound 0.253 µM): 0.553
relative viability ([4]; first compound 0.8 µM): 0.526
relative viability ([4]; first compound 2.53 µM): 0.65
relative viability ([5]; first compound 0.08 µM): 0.953
relative viability ([5]; first compound 0.253 µM): 0.815
relative viability ([5]; first compound 0.8 µM): 0.827
relative viability ([5]; first compound 2.53 µM): 1.03
relative viability ([6]; first compound 0.08 µM): 0.264
relative viability ([6]; first compound 0.253 µM): 0.256
relative viability ([6]; first compound 0.8 µM): 0.445
relative viability ([6]; first compound 2.53 µM): 0.248
relative viability ([7]; first compound 0.08 µM): 0.872
relative viability ([7]; first compound 0.8 µM): 0.783
relative viability ([7]; first compound 2.53 µM): 0.823
relative viability ([8]; first compound 0.08 µM): 0.299
relative viability ([8]; first compound 0.253 µM): 0.252
relative viability ([8]; first compound 0.8 µM): 0.302
relative viability ([8]; first compound 2.53 µM): 0.208
relative viability ([9]; first compound 0.08 µM): 0.503
relative viability ([9]; first compound 0.253 µM): 0.461
relative viability ([9]; first compound 0.8 µM): 0.656
relative viability ([9]; first compound 2.53 µM): 0.472
relative viability ([10]; first compound 0.08 µM): 0.319
relative viability ([10]; first compound 0.253 µM): 0.408
relative viability ([10]; first compound 0.8 µM): 0.281
relative viability ([10]; first compound 2.53 µM): 0.352
relative viability ([11]; first compound 0.08 µM): 0.695
relative viability ([11]; first compound 0.253 µM): 0.557
relative viability ([11]; first compound 0.8 µM): 0.557
relative viability ([11]; first compound 2.53 µM): 0.545
relative viability ([12]; first compound 0.08 µM): 1.51
relative viability ([12]; first compound 0.253 µM): 0.972
relative viability ([12]; first compound 0.8 µM): 1.01
relative viability ([12]; first compound 2.53 µM): 1.27
relative viability ([13]; first compound 0.08 µM): 1.03
relative viability ([13]; first compound 0.253 µM): 1.01
relative viability ([13]; first compound 0.8 µM): 1.01
relative viability ([13]; first compound 2.53 µM): 1.03
relative viability ([14]; first compound 0.08 µM): 0.204
relative viability ([14]; first compound 0.253 µM): 0.199
relative viability ([14]; first compound 0.8 µM): 0.308
relative viability ([14]; first compound 2.53 µM): 0.219
relative viability ([15]; first compound 0.08 µM): 0.88
relative viability ([15]; first compound 0.253 µM): 0.936
relative viability ([15]; first compound 0.8 µM): 0.854
relative viability ([15]; first compound 2.53 µM): 0.916
relative viability ([16]; first compound 0.08 µM): 0.457
relative viability ([16]; first compound 0.8 µM): 0.406
relative viability ([16]; first compound 2.53 µM): 0.44
relative viability ([17]; first compound 0.08 µM): 0.247
relative viability ([17]; first compound 0.8 µM): 0.183
relative viability ([17]; first compound 2.53 µM): 0.292
relative viability ([18]; first compound 0.08 µM): 0.911
relative viability ([18]; first compound 0.253 µM): 0.662
relative viability ([18]; first compound 0.8 µM): 0.813
relative viability ([18]; first compound 2.53 µM): 1.14
relative viability ([19]; first compound 0.08 µM): 0.769
relative viability ([19]; first compound 0.253 µM): 0.584
relative viability ([19]; first compound 0.8 µM): 0.61
relative viability ([19]; first compound 2.53 µM): 0.732
relative viability ([20]; first compound 0.08 µM): 0.455
relative viability ([20]; first compound 0.253 µM): 0.429
relative viability ([20]; first compound 0.8 µM): 0.522
relative viability ([20]; first compound 2.53 µM): 0.501
